Reference: publication PMC12866179, “Oxidized MIF is an Alzheimer’s disease drug target relaying external risk factors to tau pathology” (Cell Reports Medicine, 2025)

How the values were obtained:
[1] = MTT assay, SH-SY5Y-tau-P301S cells; format: cell-based; settings: human, Figure S1B
Description: For viability analysis 4x10^4 Vero or 8x10^4 SH-SY5Y-tau-P301S cells were plated in a 96-well plate and incubated at 37°C overnight. Then the compounds diluted in DMSO were added to the cells. The final concentration of DMSO was 1%. The cells were then incubated for 24h (Vero) or 48h (SH-SY5Y). Afterward 20 μL of a Thiazolyl Blue Tetrazolium Bromide (MTT, Sigma) solution (5 mg/mL in PBS) was added to the cells and incubated for 4h allowing viable cells to reduce the yellow MTT into blue formazan metabolites. Following aspiration of the medium, the formazan was resuspended in 200 μL isopropanol/40 mM HCl and incubated for 30 min at RT. The diluted formazan was spectrometrically analyzed using a Tecan Safire Spectrometer at 560 nm and background at 670 nm was subtracted.

[2] = system: GSK3β; assay: GSK3β phosphorylation (Ser9) in SH-SY5Y-tau-P301S cells, immunoblot; format: cell-based, human; settings: dose-dependent and MIF-dependent
Description: After the protein concentration of cell lysates and homogenates had been determined using the DC Protein Assay Kit (Bio-Rad), 20 μg of each sample were dissolved in NuPAGE LDS Sample buffer (including 2% β-mercaptoethanol), boiled at 100°C for 5 min and then separated on NuPAGE Novex 4–12% Bis-Tris midi gels (Invitrogen) using NuPAGE MES SDS Running buffer (Invitrogen). Proteins were then transferred to a 0.2 μm nitrocellulose membrane (Amersham) in 24 mM Tris/192 mM glycine/20% MeOH at 400 mA for 2h using a tank blot system (Bio-Rad). In order to detect any blotting artifacts, the proteins on the membranes were visualized with Ponceau S (Sigma). The membranes were destained with PBS and then blocked with PBS/5% nonfat milk (Oxoid) for 1h at RT. Incubations with primary antibodies (diluted 1:1,000) in PBS-T were carried out overnight at 4°C. Then the membranes were washed three times with PBS-T for 10 min and afterward incubated with fluorescent secondary antibodies (IR Dye 680 or 800: Li-COR Biosciences.) diluted 1:20,000 in PBS-T for 1h at RT. Following three washing steps with PBS-T for 10 min each, the membranes were scanned using an LI-COR Odyssey CLX. Signal intensities were calculated using the Image Studio Version 2.1 software (LI-COR Biosciences). Blots were reused for staining with additional primary antibodies following the same procedure.

[3] = set-up: species or system SD rats; settings: rat, in vivo, ip, 5 mg/kg
Description: Figure S5. PAV-17 4 decreases ta u phosphorylation and aggr e gat ion in vi v o. Rel a ted to […]
(A) MTD (Maximum Tol erated Dose) assessment of PAV com pounds in BALB/c mice. BALB/c mice we re dosed through int ra pe rit o ne al (IP ) ro ute at di ff e ren t doses as pe r bo dy we igh t of an ima ls an d mice we re obser ved at di ff e ren t time interval for toxic signs till 48 h, PD (Post dose) . MTD at wa s declared at NOAEL (No-obser ved-adver se-effect level) conc. of PAV […]
(B) PAV-61 7 dose- an d MIF-de pe nd en t ly reduces tau phosphorylati on (A T8) . SH-SY5Y-P301S-control or -MIF-knockdown cel ls we re treated with the indicated concentrations of PAV- […]
cel ls. The di ag ram s show the signals of AT8 normalized to total tau (HT7 ) from six (n =6) in de pe nd en t exper iments. One-wa y ANOVA (Sidak´s post-hoc)
(C) Pharmacokinetic assessment of PAV-61 7 in Sprague Da wley ra ts (S D). Ma le SD ra ts (n=4) we re dosed via three ro utes na me ly intravenous (IV )- 1 mg/kg, (IP )- 5 mg/kg an d per ora l (P O)- 5 mg/kg. Plasma concentration wa s anal yzed at di ff e ren t time intervals. Pharmacokinetic pa ra met e rs we re de t erm ine d usi ng Win No nlin . Cma x (p ea k pl asma concentration) achieved through IV wa s 12 8 ng / mL, IP wa s 36 2. 6 ng / mL an d PO wa s 15 1. 1 ng / mL at Tmax (time of pe ak concentration obser ved) 1 h, 0. 5 h an d 4 h respectively. […]

Row | SMILES | CC50 at 48 h [1] | phosphorylation of GSK3β at Ser9 [2] | tissue penetration [3]
1 | CCc1cc(N2CCCC2)cc2[s+]c3cc(N4CCCC4)cc(C)c3nc12.[I-] [PAV-174, 3,7-Di(pyrrolidine-1-yl) 1-ethyl-9-methyl-phenothiazin-5-ium iodide] | 1480 nM | increased | –
2 | [I-].c1cc2nc3ccc(N4CCCC4)cc3[s+]c2cc1N1CCCC1 [PAV-617, 3,7-Di(pyrrolidine-1-yl)phenothiazine-5-ium iodide] | – | – | good tissue penetration, including the brain
